The results in this text go back to article PMC5767893 (ACS Medicinal Chemistry Letters, 2017).

For series [1] the following is noted: mouse.
Series [2] can be described thus: Mouse microsomal stability. The class given is in vitro ADME. To be noted: microsomes.
The nature of series [3]: Nonspecific microsomal binding. The series is classed as in vitro ADME. The conditions noted are these: human, microsomes.
The nature of the next series: Plasma protein binding. To be noted: mouse. The series is classed as in vitro ADME.
A further series is described as follows: in vivo. The conditions noted are these: mouse, plasma, po, 1 mg/kg.
The target of another series is T1, p300 HAT domain (Homo sapiens, UniProt Q09472).
T1 sequence (Q09472 1287-1663 limits assumed): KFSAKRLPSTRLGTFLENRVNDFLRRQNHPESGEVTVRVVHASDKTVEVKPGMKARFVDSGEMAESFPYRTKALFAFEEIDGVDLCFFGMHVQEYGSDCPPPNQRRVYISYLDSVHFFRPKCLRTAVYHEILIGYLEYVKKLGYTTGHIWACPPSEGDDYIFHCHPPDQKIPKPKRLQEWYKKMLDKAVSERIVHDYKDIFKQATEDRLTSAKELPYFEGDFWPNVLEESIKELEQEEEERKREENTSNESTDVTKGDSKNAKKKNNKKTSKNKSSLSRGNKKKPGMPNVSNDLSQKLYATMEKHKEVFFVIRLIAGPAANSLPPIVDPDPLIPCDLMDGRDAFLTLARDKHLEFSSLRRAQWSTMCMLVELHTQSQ
The conditions noted are these: for LE (ligand efficiency): LE = −1.4 log Ki/# heavy atoms.

Take `CNC(=O)Nc1ccc2c(c1)CC[C@]21NC(=O)N(CC(=O)N(Cc2ccccc2)[C@@H](C)C2CC2)C1=O` [Compound 20]: the “oral AUC” value in series [1] (10 mg/kg oral dose) was “no exposure”.

For `CNC(=O)Nc1ccc2c(c1)CC[C@@]21OC(=O)N(CC(=O)N(Cc2ccc(F)cc2)[C@H](C2CC2)C(F)(F)F)C1=O` [Compound 23], in series [2], the CLint scaled was 181 L/h/kg and the “mouse microsomal stability CL scaled” value is 41 L/h/kg. This molecule came in with an unbound share (fraction unbound) in series [3] of 0.22. For the same molecule, in “Plasma protein binding”, the fraction unbound is 0.002. In addition, the F % oral in series [1] is reported as 45%. In the series “in vivo”, this molecule displayed an AUC of 1100 ng·h/mL.

With `Cc1ccccc1C1NC(=O)N(CC(=O)N(Cc2ccccc2)[C@@H](C)C2CC2)C1=O` (stereo partly drawn) [Compound 3b], the “LE (ligand efficiency)” value on p300 HAT domain amounted to 0.27.

For `CNC(=O)Nc1ccc2c(c1)CC[C@@]21OC(=O)N(CC(=O)N(Cc2ccccc2)[C@@H](C)C2CC2)C1=O` [Compound 22], in series [2], the CLint scaled is 188 L/h/kg and the “mouse microsomal stability CL scaled” value worked out at 107 L/h/kg.

Consider `CC(C1CC1)N(Cc1ccccc1)C(=O)CN1C(=O)NC(Cc2c[nH]c3ccccc23)C1=O` (stereo not drawn) [Compound 1], for which, on p300 HAT domain, the “LE (ligand efficiency)” value stood at 0.23. Besides, at p300 HAT domain (LipE = −log Ki – clogP), the “LipE (lipid efficiency)” value amounted to 3.

Broadly, the CLint scaled is the capacity of the preparation to metabolise the compound, expressed as a volume cleared per time. High values mean faster metabolism, low ones greater metabolic stability. As usually defined, the fraction unbound is free concentration divided by total concentration. A word on the AUC: it is the area under the concentration-time curve, a measure of exposure. A higher AUC goes with more exposure.
